Measured values: patent publication EP1669379B1, “3,5-DIMETHYL-1-ADAMANTYL-AMMONIUM POLYMERIC SALTS AND THE USE THEREOF IN THE FORM OF ANTIVIRAL AGENTS” (priority 2003, dated 2005)
Counter-ions that a name gives are not always drawn. Like-named read-outs stand apart in the source and are kept apart here.

Tests used:
solubility (qualitative) = type: physicochemical
[1] = acute toxicity, single oral administration to mice (LD50); details: both sexes, Balb, mouse, in vivo
Method: The toxicity level of claimed compounds was assessed according to a general index of acute toxicity - average fatal dose of LD50. The study was held with a single oral administration of the agent to white mice of both sexes, line "Balb", weight 18 - 20 g, and to white rats, line "Vistar", weight 130 - 250 g (female) and 225 - 370 g (male). The medications were administered to mice in the dose range from 250 to 1100 mg/kg, and to rats in the range of 480 - 2315 mg/kg.

[2] = test system: virus of the influenza of the type A/Victoria35/72; type: cell-based; details: CAC model; dose 25.0 mcg/ml as calculated per equimolecular content of DMAAM
[3] = test system: virus of the influenza A/Li/40; test: antiviral activity in tissue culture of chorionallantoic coat fragments (CAC model), A/Li/40; type: cell-based, chick-embryos; details: dose 25.0 mcg/ml as calculated per equimolecular content of DMAAM
Method: (§1) The tests of antiviral activity of produced polymeric salts were conducted against the viruses of types A and B influenza using the tissue culture of chorionallantoic coat fragments from chick-embryos (model CAC) and infecting animals (mice).

[4] = test system: virus of the influenza B/Li/40; test: antiviral activity in infected mice, medical and preventive treatment scheme, oral; type: in vivo; details: single dose 50 mg/ml as calculated per equimolecular content of DMAAM, administration frequency 5
Method: as §1
(§2) In each experimental and control (placebo) group 20 mice of both sexes were infected.

[5] = test system: influenza A/Aichi/2/68 virus; test: duration of antiviral activity in infected mice, preventive application scheme, single oral dose; type: in vivo; details: for Protection index of medication (%) when administered in specified periods (hours) before contamination: mice, single oral dose 100mg/kg as calculated per equimolecular DMAAM content
Method: as §1, §2

[6] = test system: influenza virus of B type; test: summary statement on activity against influenza virus of B type; details: conclusion from the tables; protection index less than 20 is considered inactive
Text: At the same time synthesized (claimed) polymeric compounds of 3.5-dimethyl-1-adamantylamine have an effective level of antiviral activity against the influenza virus of B type, both in the infection model of chick-embryo and mice.

[7] = test system: influenza virus of B type; details: statement with reference to USSR author's certificates; cited from earlier work

CC12CC3CC(C)(C1)CC(N)(C3)C2 [3.5-dimethyl-l-adamantylamine, 3.5-dimethyl-1-adamantylamine]
solubility in water (solubility (qualitative)): insoluble in water

CC12CC3CC(C)(C1)CC(N)(C3)C2 [HC - DMAAM (memantine), hydrochloride 3.5-dimethyl-1-adamantylamine]
LD50 [1]: 363 mg/kg | Protection index of the medication, % [2]: 39% | Protection index of the medication, % [3]: 0% | Protection index of medication, % [4]: 7.1% | The number of animals Died, % [4]: 65% | The number of animals Died, Animal units [4]: 13 | Protection index of medication (%) when administered in specified periods (hours) before contamination ([5]; 1 hour before contamination): 37% | Protection index of medication (%) when administered in specified periods (hours) before contamination ([5]; 24 hours before contamination): 28% | Protection index of medication (%) when administered in specified periods (hours) before contamination ([5]; 48 hours before contamination): 22% | Protection index of medication (%) when administered in specified periods (hours) before contamination ([5]; 72 hours before contamination): 11% | Protection index of medication (%) when administered in specified periods (hours) before contamination ([5]; 96 hours before contamination): 9% | Protection index of medication (%) when administered in specified periods (hours) before contamination ([5]; 120 hours before contamination): 7% | time of administration before infection at which the medication was effective ([5]; prevention scheme, same dose as calculated per 3.5-dimethyl-1-adamantylamine content): 24 h | antiviral activity against the influenza virus of B type [6]: is not effective

Cl.NC12CC3CC(CC(C3)C1)C2 [midantan, hydrochloride 1-adamatilamine]
antiviral activity against the influenza virus of B type [7]: is not effective

CC(N)C12CC3CC(CC(C3)C1)C2.Cl (stereo not drawn) [remantadin, hydrochloride α-methyl-α-(1-adamantyl)methylamine]
antiviral activity against the influenza virus of B type [7]: is not effective
